Read-outs that look alike come from different tables or passages of the source. Where a SMILES comes first, the peptide text is derived from it. [ ]: non-standard residue; d: D form. The star is where a group is joined. ξ: configuration not given here. X1 = O=C(COc1c(-c2csc(N3CCOCC3)n2)ccc(F)c1F)NCCCCCCN*; Dip = N[C@H](C(=O)O)C(c1ccccc1)c1ccccc1; Chg = N[C@H](C(=O)O)C1CCCCC1; NMeA = CN[C@@H](C)C(=O)O; ξP = O=C(O)C1CCCN1
Legend:
22Rv1-Enz^R cells = assay: 22Rv1-Enz^R cell proliferation (cell count, Experimental Example 3); format: cell-based, human
Experimental: The human prostate cancer cell line, 22Rv1 has been reported to express a high level of AR-V7. Thus, 22Rv1 was seeded at 50,000 cells/well on a 24-well plate in quadruplicates and treated with test compound in concentrations ranging up to 20 μM for four days. Standard culture media was RPMI-1640 supplemented with 10% fetal bovine serum. The test compound initially was dissolved in DMSO at 50 mM. This stock solution was then diluted as needed for the indicated concentrations. At the end of the four-day period, cells were harvested using 1% trypsin and counted using an automated cell counter.
(§1) Cell Culture. Human CaP cell lines, LNCaP, 22Rv1, VCaP, PC3, and DU145 are obtained from the American Type Culture Collection (ATCC) and maintained in the standard culture media: RPMI-1640 supplemented with 10% fetal bovine serum (FBS). LNCaP, 22Rv1, and VCaP are androgen-responsive cell lines, while PC3 and DU145 are not. To establish SAT resistant CaP cell lines, LNCaP, 22Rv1, and VCaP are treated continuously with 10-50 μM abiraterone, apalutamide, darolutamide, or enzalutamide. After 3-6 months, stable cell lines are established and designated as LNCaP-Abi^R, LNCaP-Apa^R, LNCaP-Daro^R, LNCaP-Enz^R, VCaP-Abi^R, VCaP-Apa^R, VCaP-Daro^R, VCaP-Enz^R, 22Rv1-Abi^R, 22Rv1-Apa^R, 22Rv1-Daro^R and 22Rv1-Enz^R. Unless otherwise specified, the standard culture media for these SAT-resistant cell lines included 10 μM of their respective SAT. For the proteasome inhibitor study, the inhibitors MG132 and Epoxomicin are used. The E3 ligase inhibitors Heclin, Nutlin 3a, Thalidomide, and VH298 are used. Cell lines obtained from ATCC are confirmed by checking their morphology using optical microscopy, establishing baselines for cell proliferation, verifying species of origin using isoenzymology, and characterizing the cell's DNA fingerprint using short tandem repeat (STR) profiling. Mycoplasma contamination is also assessed using a PCR based detection system.

AR-FL = molecular target: T1, AR-FL (Homo sapiens, UniProt P10275, DUP590-628/H875Y); assay: Immunoblot analysis of AR-FL protein in CaP cells (Experimental Example 3); format: cell-based; parameters: decreased AR-V7 and AR-FL protein expression levels in 22Rv1 cells; endogenous in cells; host or cells: 22Rv1 (also VCaP, LNCaP and SAT-resistant sublines)
T1 sequence (P10275 with tags, fused parts or gaps DUP590-628/H875Y): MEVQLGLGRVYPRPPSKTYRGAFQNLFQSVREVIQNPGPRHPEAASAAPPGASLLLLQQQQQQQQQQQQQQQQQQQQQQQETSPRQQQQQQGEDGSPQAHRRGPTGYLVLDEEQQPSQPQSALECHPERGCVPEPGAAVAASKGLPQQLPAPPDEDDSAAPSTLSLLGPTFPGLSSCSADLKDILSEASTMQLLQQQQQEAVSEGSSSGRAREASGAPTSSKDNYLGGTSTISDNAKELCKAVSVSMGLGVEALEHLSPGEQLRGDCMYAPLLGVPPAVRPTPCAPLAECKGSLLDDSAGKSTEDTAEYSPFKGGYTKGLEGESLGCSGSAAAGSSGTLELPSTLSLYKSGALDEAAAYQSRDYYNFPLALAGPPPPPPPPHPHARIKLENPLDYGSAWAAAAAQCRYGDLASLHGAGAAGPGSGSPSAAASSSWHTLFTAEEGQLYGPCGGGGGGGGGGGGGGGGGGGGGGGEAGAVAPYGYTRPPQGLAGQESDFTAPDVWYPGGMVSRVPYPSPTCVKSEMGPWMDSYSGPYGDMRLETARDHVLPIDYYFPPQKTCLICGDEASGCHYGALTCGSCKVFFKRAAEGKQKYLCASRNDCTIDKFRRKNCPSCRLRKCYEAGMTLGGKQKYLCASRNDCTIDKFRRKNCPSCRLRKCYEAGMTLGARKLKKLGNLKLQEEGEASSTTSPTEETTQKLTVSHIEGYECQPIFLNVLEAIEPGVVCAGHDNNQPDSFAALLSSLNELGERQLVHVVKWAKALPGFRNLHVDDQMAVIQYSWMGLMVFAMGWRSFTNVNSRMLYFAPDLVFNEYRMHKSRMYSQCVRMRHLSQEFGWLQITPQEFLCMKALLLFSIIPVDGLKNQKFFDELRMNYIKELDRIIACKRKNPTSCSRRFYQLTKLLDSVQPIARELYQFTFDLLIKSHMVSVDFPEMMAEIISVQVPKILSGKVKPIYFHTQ
Experimental: as §1
Immunoblot Analysis. CaP cells are collected and lysed with the lysis buffer (20 mM Tris-HCl (pH 7.5), 150 mM NaCl, 1 mM Na2EDTA, 1 mM EGTA, 1% Triton, 2.5 mM sodium pyrophosphate, 1 mM beta-glycerophosphate, 1 mM Na3VO4, and 1 μg/ml leupeptin) containing 1 mM phenylmethylsulfonyl fluoride (PMSF). Cell lysates are then centrifuged and protein in the supernatant is quantified. After separating 25-50 μg of protein using SDS-PAGE, samples are incubated with AR-V7, GR, PR, ERα, AR-FL, ubiquitin, or β-actin antibodies. For AR-V7, AR-FL, PR, GR, and ERα immunoblots, primary antibody is diluted 1:1000 in 5% skim milk. For the β-actin immunoblot, 1:10000 diluted primary antibody is used. All membranes are incubated overnight at 4° C. Following the incubation with appropriate secondary antibody, immunoblots are analyzed using SuperSignal West Femto Maximum Sensitivity Substrate (ThermoFisher).

DC50 (AR-FL; 22Rv1, 24 hours, immunoblot, read-out: DC50, concentration at which 50% of AR-FL degraded in 24 hours) [nM] | concentration from which AR-FL protein expression is decreased (immunoblot) (AR-FL; 22Rv1 cells, 24 hours, 0, 0.01, 0.1, 1 and 10 μM tested) [µM] | AR-FL protein expression level in parental and SAT-resistant 22Rv1, VCaP and LNCaP cells (AR-FL; immunoblot) | DC50 (AR-FL; 24 hours, immunoblot, read-out: DC50, concentration at which 50% of AR-FL is degraded in 24 hours) [nM] | SMILES | 22Rv1-EnzR cell count, % of control (22Rv1-Enz^R cells; 1 μM, 6 days) | reduction of 22Rv1-Enz^R cell counts after pretreatment with MG-132 (22Rv1-Enz^R cells; 10 μM, 4 days, MG-132 (5 μM) pretreatment)
2000 | 1 | decreases the protein expression levels |  | Cc1ncsc1-c1ccc([C@H](C)NC(=O)[C@@H]2C[C@@H](O)CN2C(=O)[C@@H](NC(=O)CCCCNC(=O)COc2c(-c3csc(N4CCOCC4)n3)ccc(F)c2F)C(C)(C)C)cc1 [Example 16, (2S,4R)-1-((S)-2-(5-(2-(2,3-difluoro-6-(2-morpholinothiazol-4-yl)phenoxy)acetamido)pentanamido)-3,3-dimethylbutanoyl)-4-hydroxy-N-((S)-1-(4-(4-methylthiazol-5-yl)phenyl)ethyl)pyrrolidine-2-carboxamide] | about 45 % of control | 
 |  |  | < 500 | CN[C@@H](C)C(=O)N[C@H](C(=O)N1CCCC1C(=O)N[C@H](C(=O)NCCCCCCNC(=O)COc1c(-c2csc(N3CCOCC3)n2)ccc(F)c1F)C(c1ccccc1)c1ccccc1)C1CCCCC1 (stereo partly drawn) [Example 26, (S)-1-((S)-2-cyclohexyl-2-((S)-2-(methylamino)propanamido)acctyl)-N-((S)-1-((6-(2-(2,3-difluoro-6-(2-morpholinothiazol-4-yl)phenoxy)acetamido)hexyl)amino)-1-oxo-3,3-diphenylpropan-2-yl)pyrrolidine-2-carboxamide] (H-[NMeA][Chg][ξP][Dip]-X1) |  | substantially blocked

— patent US20230132823A1, “BI-FUNCTIONAL COMPOUNDS AND METHODS FOR TARGETED UBIQUITINATION OF ANDROGEN RECEPTOR” (MONTELINO THERAPEUTICS, INC., priority 2020, published 2023)
